The conditions of series [1]: ratio of drug concentration in milk and plasma; cited from earlier work.
Series [2] addresses T1, bovine serum albumin BSA (Bos taurus, UniProt P02769).
T1 construct: purchased Sigma Aldrich
In words: NP TLC on silica gel plates impregnated with bovine serum albumin. Type of series: in vitro ADME. Particulars: for NP/C: Rf from BSA-modified NP plate / Rf from clear one (control); for NP: Rf value from NP plate impregnated with 2 mg/mL BSA solution, mobile phase pH 7.4.

For series [3], the target named is T1, bovine serum albumin BSA. Description: RP TLC on silanized RP-2 plates impregnated with bovine serum albumin. Particulars: for RP/C: Rf from BSA-modified RP-2 plate / Rf from clear one (control); for RP: Rf value from RP plate impregnated with 2 mg/mL BSA solution, mobile phase pH 7.4. Format: in vitro ADME.
A short description of series [4]: NP TLC on unimpregnated control plate. Format: physicochemical. Particulars: Rf value from unimpregnated NP plate (control); mobile phase pH 7.4.
Series [5] can be described thus: RP TLC on unimpregnated RP-2 control plate. Type of series: physicochemical. As to conditions: Rf value from unimpregnated RP plate (control); mobile phase pH 7.4.
Another series addresses T2, human serum albumin HSA (Homo sapiens, UniProt P02768).
T2 construct: 4 × 10 mm
In words: HPLC on immobilized human serum albumin column (HPLC-HSA). Format: in vitro ADME. Particulars: for log kHSA: logarithm of retention factor, mobile phase pH 7.4; for kHSA: retention factor, acetate buffer pH 7.4/acetonitrile/methanol 85:10:5.

The nature of series [6]: HPLC on immobilized artificial membrane column (HPLC-IAM). Format: physicochemical. Particulars: for log kIAM: logarithm of retention factor, mobile phase pH 7.4; for kIAM: retention factor, phosphate buffer pH 7.4/acetonitrile 80:20.
On the set-up of series [7]: method as in earlier work. As to conditions: code describing the acid-base properties; source Chembl; cited from earlier work.
Throughout, for a/b/n code: key: (-1) - acids; (0) - neutrals; (1) - bases.

T2 sequence (P02768 25-609): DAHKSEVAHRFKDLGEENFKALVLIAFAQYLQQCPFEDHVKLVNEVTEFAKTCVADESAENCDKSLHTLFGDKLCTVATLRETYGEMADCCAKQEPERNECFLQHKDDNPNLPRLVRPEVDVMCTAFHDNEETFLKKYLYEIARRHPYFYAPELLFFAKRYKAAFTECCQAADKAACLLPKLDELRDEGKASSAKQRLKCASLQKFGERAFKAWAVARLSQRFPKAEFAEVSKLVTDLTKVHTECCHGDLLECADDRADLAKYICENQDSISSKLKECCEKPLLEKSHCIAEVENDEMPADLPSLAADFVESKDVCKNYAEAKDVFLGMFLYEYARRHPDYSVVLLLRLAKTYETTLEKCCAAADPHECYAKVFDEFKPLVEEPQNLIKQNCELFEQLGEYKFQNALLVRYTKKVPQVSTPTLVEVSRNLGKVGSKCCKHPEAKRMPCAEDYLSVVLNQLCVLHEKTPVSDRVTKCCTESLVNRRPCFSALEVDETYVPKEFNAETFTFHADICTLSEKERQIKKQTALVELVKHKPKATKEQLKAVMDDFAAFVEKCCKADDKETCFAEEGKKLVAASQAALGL
T1 sequence (P02769 25-607): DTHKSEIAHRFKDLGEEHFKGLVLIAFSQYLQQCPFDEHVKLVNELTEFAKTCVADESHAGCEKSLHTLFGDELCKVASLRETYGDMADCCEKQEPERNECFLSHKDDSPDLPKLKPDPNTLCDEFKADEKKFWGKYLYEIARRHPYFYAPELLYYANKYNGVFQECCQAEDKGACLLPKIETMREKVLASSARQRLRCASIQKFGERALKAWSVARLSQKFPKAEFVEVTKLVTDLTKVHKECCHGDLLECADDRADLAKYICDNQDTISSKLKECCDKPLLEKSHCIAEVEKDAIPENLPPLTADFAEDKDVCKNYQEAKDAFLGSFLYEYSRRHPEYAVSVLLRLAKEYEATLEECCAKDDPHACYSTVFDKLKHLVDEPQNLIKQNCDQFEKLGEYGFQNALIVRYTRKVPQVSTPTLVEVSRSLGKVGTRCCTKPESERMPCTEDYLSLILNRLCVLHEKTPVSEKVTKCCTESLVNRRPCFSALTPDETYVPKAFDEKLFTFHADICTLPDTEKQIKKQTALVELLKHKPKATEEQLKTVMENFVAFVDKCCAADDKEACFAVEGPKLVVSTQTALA

Consider `CN[C@H]1CC[C@@H](c2ccc(Cl)c(Cl)c2)c2ccccc21` [sertraline], for which the M/P ratio result in series [1] is “above 1”.

`O=C(c1ccccc1)c1ccc2n1CCC2C(=O)O` (stereo not shown) [ketorolac]: at bovine serum albumin BSA [2], the NP/C was found to be 0.99 and the NP came out at 0.91. Besides, on bovine serum albumin BSA [3], the RP/C was found to be 1.00 and the RP came to 0.96. The same molecule displayed a CNP in series [4] of 0.92. Besides, in series [5], the CRP came to 0.96. On human serum albumin HSA, the “log kHSA” value is reported as 0.98 and the kHSA is 9.65. In addition, in series [6], the “log kIAM” value is given as 0.38 and the kIAM stood at 2.39. The a/b/n code in series [7] was -1.

At bovine serum albumin BSA [2], `CC(N)C12CC3CC(CC(C3)C1)C2` (stereo not shown) [rimantadine] showed an NP/C of 1.00 and an NP of 0.92. On bovine serum albumin BSA [3], this molecule registered an RP/C of 1.00 and an RP of 0.95. The molecule also had a CNP in series [4] of 0.92. The molecule further yielded a CRP in series [5] of 0.95. In addition, on human serum albumin HSA, the “log kHSA” value is on record as -0.80 and the kHSA worked out at 0.16. In series [6], the “log kIAM” value is on record as 0.28 and the kIAM is recorded as 1.91. The a/b/n code in series [7] was 1.

As to `CC[C@@H](CO)NCCN[C@@H](CC)CO` [ethambutol], at bovine serum albumin BSA [2], the NP/C stood at 1.11 and the NP amounted to 0.21. At bovine serum albumin BSA [3], the RP/C turned out to be 0.98 and the RP came out at 0.95. In series [4], this molecule gave a CNP of 0.19. The molecule also had a CRP in series [5] of 0.97. At human serum albumin HSA, the “log kHSA” value was found to be 0.24 and the kHSA stood at 1.73. Also, in series [6], the “log kIAM” value is reported as 0.34 and the kIAM was 2.18. Further, the a/b/n code in series [7] is 1.

The values are drawn from paper PMC9913351, “Computational Approach to Drug Penetration across the Blood-Brain and Blood-Milk Barrier Using Chromatographic Descriptors” (Cells, 2023).
